Measured values from ChEMBL document CHEMBL4004838, “Design and synthesis of novel phenyl -1, 4-beta-carboline-hybrid molecules as potential anticancer agents” (Eur J Med Chem, 2017).
Activity calls are given as the source filed them. No cut-off for these calls is given here.

Key:
[1] = species on record: Bos taurus; assay: Induction of calf thymus DNA intercalation assessed as compound-DNA complex formation at 5 uM incubated for 1 hr by ethidium bromide staining based agarose gel electrophoresis relative to control
[2] = test system: A549; assay: Growth inhibition of human A549/ATCC cells incubated for 48 hrs by sulforhodamine B assay; type: functional; conditions: A549, 48 h
[3] = test system: NCI-H522; assay: Growth inhibition of human NCI-H522 cells incubated for 48 hrs by sulforhodamine B assay; type: functional; conditions: NCI-H522, 48 h
[4] = test system: OVCAR-5; assay: Growth inhibition of human OVCAR5 cells incubated for 48 hrs by sulforhodamine B assay; type: functional; conditions: OVCAR-5, 48 h
[5] = test system: Hs-578T; assay: Growth inhibition of human Hs 578T cells incubated for 48 hrs by sulforhodamine B assay; type: functional
[6] = test system: HOP-62; assay: Growth inhibition of human HOP62 cells assessed as cell growth at 0.01 uM incubated for 48 hrs by sulforhodamine B assay relative to control; type: functional; conditions: HOP-62, 48 h, read-out: Activity
[7] = test system: SF-268; assay: Growth inhibition of human SF268 cells assessed as cell growth at 0.01 uM incubated for 48 hrs by sulforhodamine B assay relative to control; type: functional; conditions: SF-268, 48 h, read-out: Activity
[8] = test system: LOX IMVI; assay: Growth inhibition of human LOXIMVI cells assessed as cell growth at 0.01 uM incubated for 48 hrs by sulforhodamine B assay relative to control; type: functional; conditions: read-out: Activity
[9] = test system: 786-0; assay: Growth inhibition of human 786-0 cells assessed as cell growth at 0.01 uM incubated for 48 hrs by sulforhodamine B assay relative to control; type: functional; conditions: 786-0, 48 h, read-out: Activity
[10] = test system: SR; assay: Growth inhibition of human SR cells assessed as cell growth at 0.1 uM incubated for 48 hrs by sulforhodamine B assay relative to control; type: functional; conditions: read-out: Activity
[11] = test system: SW-620; assay: Growth inhibition of human SW620 cells assessed as cell growth at 0.1 uM incubated for 48 hrs by sulforhodamine B assay relative to control; type: functional; conditions: SW-620, 48 h, read-out: Activity
[12] = test system: SF-295; assay: Growth inhibition of human SF295 cells assessed as cell growth at 0.1 uM incubated for 48 hrs by sulforhodamine B assay relative to control; type: functional; conditions: SF-295, 48 h, read-out: Activity
[13] = test system: LOX IMVI; assay: Growth inhibition of human LOXIMVI cells assessed as cell growth at 0.1 uM incubated for 48 hrs by sulforhodamine B assay relative to control; type: functional; conditions: read-out: Activity
[14] = test system: OVCAR-5; assay: Growth inhibition of human OVCAR5 cells assessed as cell growth at 0.1 uM incubated for 48 hrs by sulforhodamine B assay relative to control; type: functional; conditions: OVCAR-5, 48 h, read-out: Activity
[15] = test system: CAKI-1; assay: Growth inhibition of human Caki1 cells assessed as cell growth at 0.1 uM incubated for 48 hrs by sulforhodamine B assay relative to control; type: functional; conditions: CAKI-1, 48 h, read-out: Activity
[16] = test system: Hs-578T; assay: Growth inhibition of human Hs 578T cells assessed as cell growth at 0.1 uM incubated for 48 hrs by sulforhodamine B assay relative to control; type: functional; conditions: read-out: Activity
[17] = test system: K562; assay: Growth inhibition of human K562 cells assessed as cell growth at 1 uM incubated for 48 hrs by sulforhodamine B assay relative to control; type: functional; conditions: K562, 48 h, read-out: Activity
[18] = test system: NCI-H226; assay: Growth inhibition of human NCI-H226 cells assessed as cell growth at 1 uM incubated for 48 hrs by sulforhodamine B assay relative to control; type: functional; conditions: NCI-H226, 48 h, read-out: Activity
[19] = test system: SF-268; assay: Growth inhibition of human SF268 cells assessed as cell growth at 1 uM incubated for 48 hrs by sulforhodamine B assay relative to control; type: functional; conditions: SF-268, 48 h, read-out: Activity
[20] = test system: SNB-75; assay: Growth inhibition of human SNB75 cells assessed as cell growth at 1 uM incubated for 48 hrs by sulforhodamine B assay relative to control; type: functional; conditions: SNB-75, 48 h, read-out: Activity
[21] = test system: U-251; assay: Growth inhibition of human U251 cells assessed as cell growth at 1 uM incubated for 48 hrs by sulforhodamine B assay relative to control; type: functional; conditions: U-251, 48 h, read-out: Activity
[22] = test system: Malme-3M; assay: Growth inhibition of human MALME-3M cells assessed as cell growth at 1 uM incubated for 48 hrs by sulforhodamine B assay relative to control; type: functional; conditions: read-out: Activity
[23] = test system: IGROV-1; assay: Growth inhibition of human IGROV1 cells assessed as cell growth at 1 uM incubated for 48 hrs by sulforhodamine B assay relative to control; type: functional; conditions: IGROV-1, 48 h, read-out: Activity
[24] = test system: ACHN; assay: Growth inhibition of human ACHN cells assessed as cell growth at 1 uM incubated for 48 hrs by sulforhodamine B assay relative to control; type: functional; conditions: read-out: Activity
[25] = test system: CCRF-CEM; assay: Growth inhibition of human CCRF-CEM cells assessed as cell growth at 100 uM incubated for 48 hrs by sulforhodamine B assay relative to control; type: functional; conditions: read-out: Activity
[26] = test system: SR; assay: Growth inhibition of human SR cells assessed as cell growth at 100 uM incubated for 48 hrs by sulforhodamine B assay relative to control; type: functional; conditions: read-out: Activity
[27] = test system: COLO 205; assay: Growth inhibition of human COLO205 cells assessed as cell growth at 100 uM incubated for 48 hrs by sulforhodamine B assay relative to control; type: functional; conditions: COLO 205, 48 h, read-out: Activity
[28] = test system: HCC 2998; assay: Growth inhibition of human HCC2998 cells assessed as cell growth at 100 uM incubated for 48 hrs by sulforhodamine B assay relative to control; type: functional; conditions: HCC 2998, 48 h, read-out: Activity
[29] = test system: MDA-MB-435; assay: Growth inhibition of human MDA-MB-435 cells assessed as cell growth at 100 uM incubated for 48 hrs by sulforhodamine B assay relative to control; type: functional; conditions: MDA-MB-435, 48 h, read-out: Activity
[30] = test system: SK-MEL-5; assay: Growth inhibition of human SK-MEL-5 cells assessed as cell growth at 100 uM incubated for 48 hrs by sulforhodamine B assay relative to control; type: functional; conditions: SK-MEL-5, 48 h, read-out: Activity
[31] = test system: TK-10; assay: Growth inhibition of human TK10 cells assessed as cell growth at 100 uM incubated for 48 hrs by sulforhodamine B assay relative to control; type: functional; conditions: TK-10, 48 h, read-out: Activity
[32] = test system: MCF7; assay: Growth inhibition of human MCF7 cells assessed as cell growth at 100 uM incubated for 48 hrs by sulforhodamine B assay relative to control; type: functional; conditions: MCF7, 48 h, read-out: Activity
[33] = read-out: LC50 (the source's name)
[34] = read-out: pLC50 (the source's name) (converted)

c1ccc2c3c([nH]c2c1)C(c1ccc(C2NCCc4c2[nH]c2ccccc42)cc1)NCC3 (racemic)
Activity [1]: Active
GI50 ([2]; read-out: GI50): 1.1 µM
TGI ([2]; read-out: TGI): 2.54 µM
GI50 ([2]; read-out: pGI50 (converted)): 1.1 µM
TGI ([2]; read-out: pTGI (converted)): 2.51 µM
CC50 [3, 33]: 5.21 µM
GI50 ([3]; read-out: pGI50 (converted)): 0.417 µM
CC50 [3, 34]: 5.25 µM
TGI ([3]; read-out: pTGI (converted)): 1.48 µM
GI50 ([4]; read-out: GI50): 1.8 µM
CC50 [4, 33]: 9.65 µM
TGI ([4]; read-out: TGI): 4.17 µM
GI50 ([4]; read-out: pGI50 (converted)): 1.82 µM
CC50 [4, 34]: 9.55 µM
TGI ([4]; read-out: pTGI (converted)): 4.17 µM
GI50 ([5]; read-out: GI50): 1.43 µM
CC50 [5, 33]: 11.5 µM
TGI ([5]; read-out: TGI): 3.82 µM
GI50 ([5]; read-out: pGI50 (converted)): 1.45 µM
CC50 [5, 34]: 11.5 µM
TGI ([5]; read-out: pTGI (converted)): 3.8 µM
growth at 0.01 µM [6]: 84%
growth at 0.01 µM [7]: 92%
growth at 0.01 µM [8]: 94%
growth at 0.01 µM [9]: 96%
growth at 0.1 µM [10]: 106%
growth at 0.1 µM [11]: 100%
growth at 0.1 µM [12]: 92%
growth at 0.1 µM [13]: 91%
growth at 0.1 µM [14]: 93%
growth at 0.1 µM [15]: 93%
growth at 0.1 µM [16]: 90%
growth at 1 µM [17]: 52%
growth at 1 µM [18]: 94%
growth at 1 µM [19]: 57%
growth at 1 µM [20]: 46%
growth at 1 µM [21]: 4%
growth at 1 µM [22]: 82%
growth at 1 µM [23]: 70%
growth at 1 µM [24]: 42%
growth at 100 µM [25]: 68%
growth at 100 µM [26]: -68%
growth at 100 µM [27]: 84%
growth at 100 µM [28]: 84%
growth at 100 µM [29]: 97%
growth at 100 µM [30]: 93%
growth at 100 µM [31]: -96%
growth at 100 µM [32]: -74%

c1ccc2[nH]c(-c3ccc(-c4nccc5c4[nH]c4ccccc45)cc3)nc2c1
Activity [1]: Active
GI50 ([2]; read-out: GI50): 4.15 µM
LC50 (concentration killing 50% of starting cells) ([2]; read-out: LC50): 7.98 µM
GI50 ([2]; read-out: pGI50 (converted)): 4.17 µM
LC50 (concentration killing 50% of starting cells) ([2]; read-out: pLC50 (converted)): 79.4 µM
TGI ([2]; read-out: pTGI (converted)): 18.6 µM
GI50 ([3]; read-out: GI50): 2.06 µM
CC50 [3, 33]: > 1 µM
TGI ([3]; read-out: TGI): 5.04 µM
GI50 ([3]; read-out: pGI50 (converted)): 2.04 µM
CC50 [3, 34]: > 100 µM
TGI ([3]; read-out: pTGI (converted)): 5.01 µM
GI50 ([4]; read-out: GI50): 2.43 µM
CC50 [4, 33]: 5 µM
TGI ([4]; read-out: TGI): 6.47 µM
GI50 ([4]; read-out: pGI50 (converted)): 2.45 µM
CC50 [4, 34]: 50.1 µM
TGI ([4]; read-out: pTGI (converted)): 6.46 µM
GI50 ([5]; read-out: GI50): 2.23 µM
TGI ([5]; read-out: TGI): 5.93 µM
GI50 ([5]; read-out: pGI50 (converted)): 2.24 µM
CC50 [5, 34]: > 100 µM
TGI ([5]; read-out: pTGI (converted)): 5.89 µM
growth at 0.01 µM [6]: 86%
growth at 0.01 µM [7]: 97%
growth at 0.01 µM [8]: 93%
growth at 0.01 µM [9]: 89%
growth at 0.1 µM [10]: 93%
growth at 0.1 µM [11]: 103%
growth at 0.1 µM [12]: 97%
growth at 0.1 µM [13]: 92%
growth at 0.1 µM [14]: 90%
growth at 0.1 µM [15]: 96%
growth at 0.1 µM [16]: 100%
growth at 1 µM [17]: 100%
growth at 1 µM [18]: 96%
growth at 1 µM [19]: 93%
growth at 1 µM [20]: 74%
growth at 1 µM [21]: 98%
growth at 1 µM [22]: 96%
growth at 1 µM [23]: 102%
growth at 1 µM [24]: 101%
growth at 100 µM [25]: 29%
growth at 100 µM [26]: 34%
growth at 100 µM [27]: 65%
growth at 100 µM [28]: 76%
growth at 100 µM [29]: 67%
growth at 100 µM [30]: 86%
growth at 100 µM [31]: 85%
growth at 100 µM [32]: 72%
